Assay results reported in patent publication US20230107983A1, “COMPOUND ISOLATED FROM TORILIDIS FRUCTUS, AND ANTICANCER PHARMACEUTICAL COMPOSITION CONTAINING SAME AS ACTIVE INGREDIENT” (PHARMA-GENE CO., LTD., priority 2020, published 2023).

What was measured:
[1] = tested on: breast cancer(MDA-MB-231) cell line; test: WST-1 assay, cell viability of breast cancer cell line; type: cell-based; conditions: 10-100 µg/Mℓ, 24 hours, FIG. 5
Description: (§1) The cytotoxicity of the Tr-9 compound to six cancer cell lines was confirmed. Lung cancer(A549), gastric cancer(AGS), liver cancer(Hep3B)), breast cancer(MDA-MB-231), colorectal cancer(HCT116) and pancreatic cancer(BxPC-3) cell lines and fibroblasts were aliquoted in a 96-well plate in an amount of 5×10^3 cells/well, and the novel compound Tr-9 was treated thereto at a concentration of 10, 20, 40, 60, 80, 100 µg/Mℓ for 24 hours, respectively. Lung cancer cell line was further treated at a concentration of 100 µg/Mℓ for 24 hours, 48 hours and 72 hours.
(§2) Then, the amount of living cells was measured using WST(high sensitive Water Soluble Tetrazolium salt). WST reacts with dehydrogenase in living cells and produces orange-colored watersoluble formazan. Since dehydrogenase that reacts with WST is an enzyme present in the mitochondrial electron transport chain of metabolically active cells and is effective only in living cells, the production of formazan is proportional to the number of living cells. Therefore, the absorbance at 450 nm was measured to confirm the cell viability through the formation of formazan.

[2] = tested on: liver cancer(Hep3B) cell line; test: WST-1 assay, cell viability of liver cancer cell line; type: cell-based; conditions: 10-100 µg/Mℓ, 24 hours, FIG. 6
Description: as §1, §2

[3] = tested on: gastric cancer(AGS) cell line; test: WST-1 assay, cell viability of gastric cancer cell line; type: cell-based; conditions: 10-100 µg/Mℓ, 24 hours, FIG. 4
Description: as §1, §2

[4] = tested on: Lung cancer(A549) cell line; test: WST-1 assay, cell viability of lung cancer cell line; type: cell-based, human; conditions: 10-100 µg/Mℓ, 24 hours, FIG. 3
Description: as §1, §2

[5] = tested on: pancreatic cancer(BxPC-3) cell line; test: WST-1 assay, cell viability of pancreatic cancer cell line; type: cell-based; conditions: 10-100 µg/Mℓ, 24 hours, FIG. 8
Description: as §1, §2

[6] = tested on: colorectal cancer(HCT116) cell line; test: WST-1 assay, cell viability of colorectal cancer cell line; type: cell-based, human; conditions: 10-100 µg/Mℓ, 24 hours, FIG. 7
Description: as §1, §2

Measured: cell viability

C=C(C)C1CC2=CC(=O)CC2C(C)CC1OC(=O)/C(C)=C\C (stereo not drawn) [Tr-10]
decreases the cell viability: [1] | [2] | [3] | [4] | [5] | [6]
